By MIC is commonly meant the lowest concentration found to suppress growth. As a reminder, the IC50 is the concentration needed to halve the response being measured. Low readings indicate higher potency, high ones lower potency.

Our source for the MIC and IC50 values is PMC9013261 (Bioorganic Chemistry, 2021).

Converted amounts (≈) assume the structure as drawn.

In test [1] the test system is Staphylococcus epidermidis ATCC 35984 (methicillin-resistant). Kind of test: Broth microdilution antibacterial assay. It is filed as cell-based. The settings on record: ATCC35984, read-out: MIC S. epidermidis ATCC 35984. On the technique in general: In broth dilution the organism is exposed to a series of concentrations in liquid medium.
The test system of test [2] is Klebsiella pneumoniae ATCC 10031. Kind of test: Broth microdilution antibacterial assay. The class given is cell-based. The conditions noted are these: ATCC10031, read-out: MIC K. pneumonia ATCC 10031.
In test [3] the target is 3CLpro of SARS-CoV-2 (Severe acute respiratory syndrome coronavirus 2, UniProt P0DTD1). Kind of test: biochemical.
The test system of test [4] is Bacillus subtilis 168. Description: Broth microdilution antibacterial assay. The class given is cell-based. The conditions noted are these: Bacillus subtilis, 168, read-out: MIC B. subtilis 168.
Test [5] has as its system Pseudomonas aeruginosa PAO1 (chloramphenicol-resistant). Kind of test: Broth microdilution antibacterial assay. The class given is cell-based. The settings on record: PAO1, read-out: MIC P. aeruginosa PAO1.

`CCCCCCCCCCCCCCc1cc(O)cc(O)c1` [Compound 5, 5-tetradecyl-1,3-benzenediol]: the MIC in test [1], in test [2], in test [4] and in test [5] was greater than 64 µg/mL throughout. The IC50 in test [3] is greater than 100 µM.

On to `CCCCCCCC/C=C\CCCc1cc(O)cc(O)c1` [Compound 7, (Z)-5-(trideca-4-enyl)resorcinol], for which the MIC is 4 µg/mL (≈ 13.8 µM) in test [1], greater than 64 µg/mL in test [2], 1 µg/mL (≈ 3.44 µM) in test [4] and greater than 64 µg/mL in test [5]. Also, the IC50 in test [3] is greater than 100 µM.

As for `CCCCCCCCCCCc1cc(O)cc(O)c1` [Compound 3, 5-undecyl-1,3-benzenediol], the MIC in test [1] is 2 µg/mL (≈ 7.56 µM); in test [2], 8 µg/mL (≈ 30.3 µM); in test [4], 1 µg/mL (≈ 3.78 µM); in test [5], greater than 64 µg/mL. In addition, in test [3], the IC50 was greater than 100 µM.
